According to paper PMC5524191 (ACS chemical biology, 2016):

Molecular target: 20S proteasome (Homo sapiens, UniProt P28072+P28074+Q99436)
Test: activation of Ac-Arg-Leu-Arg-AMC hydrolysis
Format: biochemical
Details: activator, trypsin-like activity

SMILES: C=C(CC)C(=O)c1ccc(OCC(=O)NCCCCCCNC(=O)[C@H](CCCNC(=O)OC(C)(C)C)NC(=O)OC(C)(C)C)c(Cl)c1Cl [compound 4, EA-B2O]
- fold activation: Activation of the trypsin-like subunits was also observed with EA-B1G and EA-B2O

SMILES: C=C(CC)C(=O)c1ccc(OCC(=O)NCCCCCCNC(=O)CNC(=O)OC(C)(C)C)c(Cl)c1Cl [compound 5, EA-B1G]
- fold activation: Activation of the trypsin-like subunits was also observed with EA-B1G and EA-B2O
